The values below come from ChEMBL document CHEMBL5465560, “Selectivity Literature for EUbOPEN Chemogenomic Library” (2024).

Molecules are shown by their SMILES.

Assay [1] addresses Protein kinase C gamma type (Homo sapiens) (UniProt P05129). Nature of the assay: Selectivity interaction (Kinase panel (Z-LYTE Assay)) EUB0001632a PRKCG. The note with it: at 10 µM.
Assay [2] concerns the target Protein kinase C theta type (Homo sapiens, UniProt Q04759). Nature of the assay: Selectivity interaction (Ambit KINOMEscan and KiNATiv profiling in Jurkat cells) EUB0000090b PRKCQ. The note with it: at 1 µM. Format: cell-based.
For assay [3], the target named is STE20-like serine/threonine-protein kinase (Homo sapiens, UniProt Q9H2G2). Nature of the assay: Selectivity interaction (KinomeScan (DiscoverX)) EUB0000607a SLK. The conditions noted are these: at 10 µM.
The target in assay [4] is Bone morphogenetic protein receptor type-1B (Homo sapiens, UniProt O00238). The note with it: at 10 µM.
Assay [5] concerns the target Myosin light chain kinase 2, skeletal/cardiac muscle (Homo sapiens) (UniProt Q9H1R3). Nature of the assay: Selectivity interaction (KinomeScan (DiscoverX)) EUB0000229b MYLK2. The conditions noted are these: at 10 µM.
Assay [6] deals with T1, Histone-lysine N-methyltransferase SETD7 (Homo sapiens) (UniProt Q8WTS6).
T1 sequence (whole entry): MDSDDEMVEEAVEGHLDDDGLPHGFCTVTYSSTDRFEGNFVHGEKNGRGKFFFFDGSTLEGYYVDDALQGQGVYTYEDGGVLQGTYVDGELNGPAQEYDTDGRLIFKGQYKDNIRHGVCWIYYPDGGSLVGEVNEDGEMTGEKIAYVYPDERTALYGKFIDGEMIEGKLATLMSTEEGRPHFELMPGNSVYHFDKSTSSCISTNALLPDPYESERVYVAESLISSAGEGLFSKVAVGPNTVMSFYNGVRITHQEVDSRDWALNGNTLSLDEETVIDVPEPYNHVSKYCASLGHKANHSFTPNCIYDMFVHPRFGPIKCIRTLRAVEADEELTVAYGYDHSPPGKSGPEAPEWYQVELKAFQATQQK
Nature of the assay: Selectivity interaction (Methyltransferase screen (Scintillation proximity assays)) EUB0000255b SETD7.

The target of assay [7] is Eukaryotic translation initiation factor 2-alpha kinase 1 (Homo sapiens) (UniProt Q9BQI3). Put plainly: Selectivity interaction (KinomeScan (DiscoverX)) EUB0001619a EIF2AK1. The conditions noted are these: at 1 µM.
The target in assay [8] is T2, Scaffold protein ILK (Homo sapiens) (UniProt Q13418).
T2 sequence (whole entry): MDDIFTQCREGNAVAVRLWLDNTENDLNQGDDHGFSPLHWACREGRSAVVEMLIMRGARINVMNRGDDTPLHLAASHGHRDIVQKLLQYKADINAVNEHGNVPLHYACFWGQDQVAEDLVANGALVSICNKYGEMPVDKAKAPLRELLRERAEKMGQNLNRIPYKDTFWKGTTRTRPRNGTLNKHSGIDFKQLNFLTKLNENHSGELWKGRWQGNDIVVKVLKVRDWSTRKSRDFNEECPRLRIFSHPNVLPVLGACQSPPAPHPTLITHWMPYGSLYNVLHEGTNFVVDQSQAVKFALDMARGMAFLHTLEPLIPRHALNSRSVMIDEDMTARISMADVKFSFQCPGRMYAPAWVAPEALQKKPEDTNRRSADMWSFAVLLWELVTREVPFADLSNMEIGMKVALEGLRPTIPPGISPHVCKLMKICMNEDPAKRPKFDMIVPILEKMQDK
Nature of the assay: Selectivity interaction (ActivX KiNativ screen (ex vivo kinase selectivity in human PBMCs)) EUB0001619a ILK. Format: cell-based. The conditions noted are these: PBMC, at 1 µM.

In assay [9] the target is T3, Serine/threonine-protein kinase 3 (Homo sapiens) (UniProt Q13188).
T3 sequence (whole entry): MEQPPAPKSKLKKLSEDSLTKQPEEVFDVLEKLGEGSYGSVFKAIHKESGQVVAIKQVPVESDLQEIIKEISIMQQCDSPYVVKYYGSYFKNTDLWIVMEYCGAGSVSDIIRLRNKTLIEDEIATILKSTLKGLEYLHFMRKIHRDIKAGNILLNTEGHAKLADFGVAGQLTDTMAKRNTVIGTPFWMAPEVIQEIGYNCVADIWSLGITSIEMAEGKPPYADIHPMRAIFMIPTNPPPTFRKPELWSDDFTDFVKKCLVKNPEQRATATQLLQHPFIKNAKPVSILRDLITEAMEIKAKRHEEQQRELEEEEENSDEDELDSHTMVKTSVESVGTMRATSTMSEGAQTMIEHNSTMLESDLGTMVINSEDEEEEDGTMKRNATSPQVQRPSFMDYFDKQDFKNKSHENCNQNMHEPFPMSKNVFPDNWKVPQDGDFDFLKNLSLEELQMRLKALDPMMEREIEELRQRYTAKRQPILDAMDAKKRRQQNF
Nature of the assay: Selectivity interaction (ActivX KiNativ screen (ex vivo kinase selectivity in human PBMCs)) EUB0001619a STK3. It is filed as cell-based. The conditions noted are these: PBMC, at 1 µM.

Assay [10] deals with Motilin receptor (Homo sapiens, UniProt O43193). Nature of the assay: Selectivity interaction (Motilin receptor binding assay, human recombinant ) EUB0000877a MLNR.
Assay [11] addresses Serine/threonine-protein kinase PLK1 (Homo sapiens, UniProt P53350). Put plainly: Selectivity interaction (Kinase panel (Invitrogen)) EUB0000639a PLK1. The conditions noted are these: at 200 nM.
Assay [12] addresses T4, Serine/threonine-protein kinase Sgk3 (Homo sapiens) (UniProt Q96BR1).
T4 sequence (whole entry): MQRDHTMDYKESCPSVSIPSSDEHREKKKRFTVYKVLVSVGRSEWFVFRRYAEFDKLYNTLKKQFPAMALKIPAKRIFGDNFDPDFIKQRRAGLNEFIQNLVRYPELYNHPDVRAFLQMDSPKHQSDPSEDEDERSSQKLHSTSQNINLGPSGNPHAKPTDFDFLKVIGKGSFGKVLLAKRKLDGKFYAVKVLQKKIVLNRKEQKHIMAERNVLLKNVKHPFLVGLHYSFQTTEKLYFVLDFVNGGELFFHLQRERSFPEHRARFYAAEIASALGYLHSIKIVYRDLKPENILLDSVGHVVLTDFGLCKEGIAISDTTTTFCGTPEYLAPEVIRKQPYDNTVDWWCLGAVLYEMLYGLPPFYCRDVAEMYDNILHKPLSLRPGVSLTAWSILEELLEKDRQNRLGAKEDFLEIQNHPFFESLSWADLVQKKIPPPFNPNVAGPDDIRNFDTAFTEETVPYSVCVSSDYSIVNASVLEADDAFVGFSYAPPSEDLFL
Nature of the assay: Selectivity interaction (ActivX KiNativ screen (kinase selectivity in THP-1 cell lysates)) EUB0000639a SGK3. Format: subcellular. The conditions noted are these: lysate, at 5 µM.

Assay [13] deals with Phosphatidylinositol 4,5-bisphosphate 3-kinase catalytic subunit gamma isoform (Homo sapiens) (UniProt P48736). Nature of the assay: Selectivity interaction (ProQinase) EUB0000171b PIK3CG.
Assay [14] addresses Lethal(3)malignant brain tumor-like protein 1 (Homo sapiens) (UniProt Q9Y468). Put plainly: Selectivity interaction (Transferase panel (protein, RNA, and DNA methyltransferases. and EP300 (acetyltransferase))) EUB0000270b L3MBTL. The note with it: at 1 µM.
The target in assay [15] is Histone-lysine N-methyltransferase KMT5B (Homo sapiens) (UniProt Q4FZB7). Nature of the assay: Selectivity interaction (Methyltransferase screen (radiometric assays, panel of 8 PRMTs, 21 protein lysine methyltransferases, 3 DNA methyltransferases, and one RNA methyltransferase)) EUB0000272b SUV420H1.
Chain of Histone-lysine N-methyltransferase KMT5B (Homo sapiens) (Q4FZB7 whole entry, looked up): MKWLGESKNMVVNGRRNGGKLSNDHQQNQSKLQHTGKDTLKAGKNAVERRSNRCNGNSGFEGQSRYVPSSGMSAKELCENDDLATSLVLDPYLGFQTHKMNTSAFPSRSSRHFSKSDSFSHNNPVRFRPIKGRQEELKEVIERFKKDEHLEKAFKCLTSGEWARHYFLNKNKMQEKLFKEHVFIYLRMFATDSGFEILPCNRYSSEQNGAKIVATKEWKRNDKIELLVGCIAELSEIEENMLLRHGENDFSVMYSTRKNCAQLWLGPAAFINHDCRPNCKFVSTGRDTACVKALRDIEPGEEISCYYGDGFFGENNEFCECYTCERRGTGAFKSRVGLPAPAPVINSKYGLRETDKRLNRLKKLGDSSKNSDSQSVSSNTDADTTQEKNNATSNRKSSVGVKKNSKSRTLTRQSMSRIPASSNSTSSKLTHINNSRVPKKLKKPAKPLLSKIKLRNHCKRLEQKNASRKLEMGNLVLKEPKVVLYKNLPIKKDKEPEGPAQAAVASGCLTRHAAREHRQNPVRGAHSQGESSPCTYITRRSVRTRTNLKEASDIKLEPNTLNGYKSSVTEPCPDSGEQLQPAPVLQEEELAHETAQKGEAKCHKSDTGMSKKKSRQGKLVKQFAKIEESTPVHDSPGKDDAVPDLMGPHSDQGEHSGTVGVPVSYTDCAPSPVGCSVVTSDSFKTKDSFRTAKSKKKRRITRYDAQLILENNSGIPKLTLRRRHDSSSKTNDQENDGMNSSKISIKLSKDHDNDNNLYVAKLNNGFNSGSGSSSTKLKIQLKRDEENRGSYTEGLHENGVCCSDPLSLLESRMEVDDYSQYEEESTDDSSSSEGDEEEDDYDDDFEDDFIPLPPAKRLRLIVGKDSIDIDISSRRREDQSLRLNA

Chain of Phosphatidylinositol 4,5-bisphosphate 3-kinase catalytic subunit gamma isoform (Homo sapiens) (P48736 whole entry, looked up, canonical isoform): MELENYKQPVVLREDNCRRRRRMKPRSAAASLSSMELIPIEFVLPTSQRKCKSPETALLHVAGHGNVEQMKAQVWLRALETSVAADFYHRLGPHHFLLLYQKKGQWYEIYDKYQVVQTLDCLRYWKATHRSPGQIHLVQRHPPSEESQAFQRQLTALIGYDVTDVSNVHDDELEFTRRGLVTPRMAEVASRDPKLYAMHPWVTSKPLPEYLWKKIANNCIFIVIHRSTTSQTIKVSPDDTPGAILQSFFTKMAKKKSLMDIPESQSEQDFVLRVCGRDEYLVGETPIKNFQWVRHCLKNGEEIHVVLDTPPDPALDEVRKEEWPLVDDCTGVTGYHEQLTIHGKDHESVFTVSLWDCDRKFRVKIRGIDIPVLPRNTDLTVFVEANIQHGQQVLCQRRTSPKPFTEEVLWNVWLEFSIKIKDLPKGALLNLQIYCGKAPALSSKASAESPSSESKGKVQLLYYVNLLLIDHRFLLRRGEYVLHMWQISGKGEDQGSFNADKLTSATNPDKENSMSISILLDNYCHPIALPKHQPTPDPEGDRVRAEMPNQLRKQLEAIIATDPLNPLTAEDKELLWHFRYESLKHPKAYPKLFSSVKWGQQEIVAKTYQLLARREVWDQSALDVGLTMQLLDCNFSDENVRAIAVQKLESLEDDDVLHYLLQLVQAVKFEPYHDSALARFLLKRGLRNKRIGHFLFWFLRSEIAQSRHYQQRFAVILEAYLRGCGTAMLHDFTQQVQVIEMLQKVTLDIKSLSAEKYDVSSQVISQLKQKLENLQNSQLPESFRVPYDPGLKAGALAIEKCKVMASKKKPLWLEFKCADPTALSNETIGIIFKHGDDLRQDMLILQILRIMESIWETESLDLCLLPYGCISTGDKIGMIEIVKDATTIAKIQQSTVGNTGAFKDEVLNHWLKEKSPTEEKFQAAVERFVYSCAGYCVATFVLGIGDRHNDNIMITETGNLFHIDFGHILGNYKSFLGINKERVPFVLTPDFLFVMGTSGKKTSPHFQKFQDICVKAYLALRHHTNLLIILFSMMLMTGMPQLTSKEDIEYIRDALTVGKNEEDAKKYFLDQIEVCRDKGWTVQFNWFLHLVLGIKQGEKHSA
Chain of Eukaryotic translation initiation factor 2-alpha kinase 1 (Homo sapiens) (Q9BQI3 whole entry): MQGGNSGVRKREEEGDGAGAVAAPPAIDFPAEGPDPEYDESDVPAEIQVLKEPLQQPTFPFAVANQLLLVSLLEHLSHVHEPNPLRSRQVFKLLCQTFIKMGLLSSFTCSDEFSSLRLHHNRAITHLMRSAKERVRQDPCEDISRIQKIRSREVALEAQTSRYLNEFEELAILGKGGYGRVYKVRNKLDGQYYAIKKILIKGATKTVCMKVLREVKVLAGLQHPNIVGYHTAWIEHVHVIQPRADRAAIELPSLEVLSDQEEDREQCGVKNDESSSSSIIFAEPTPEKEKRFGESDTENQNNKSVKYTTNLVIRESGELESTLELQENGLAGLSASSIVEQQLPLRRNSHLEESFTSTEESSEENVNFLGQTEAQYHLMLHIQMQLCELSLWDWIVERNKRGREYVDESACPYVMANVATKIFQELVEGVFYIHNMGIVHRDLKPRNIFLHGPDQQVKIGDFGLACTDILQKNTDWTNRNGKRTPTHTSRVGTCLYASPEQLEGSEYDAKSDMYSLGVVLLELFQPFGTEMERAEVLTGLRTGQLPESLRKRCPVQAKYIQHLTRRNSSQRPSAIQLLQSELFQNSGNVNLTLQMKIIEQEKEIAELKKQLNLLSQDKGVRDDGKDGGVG
Chain of Lethal(3)malignant brain tumor-like protein 1 (Homo sapiens) (Q9Y468 whole entry): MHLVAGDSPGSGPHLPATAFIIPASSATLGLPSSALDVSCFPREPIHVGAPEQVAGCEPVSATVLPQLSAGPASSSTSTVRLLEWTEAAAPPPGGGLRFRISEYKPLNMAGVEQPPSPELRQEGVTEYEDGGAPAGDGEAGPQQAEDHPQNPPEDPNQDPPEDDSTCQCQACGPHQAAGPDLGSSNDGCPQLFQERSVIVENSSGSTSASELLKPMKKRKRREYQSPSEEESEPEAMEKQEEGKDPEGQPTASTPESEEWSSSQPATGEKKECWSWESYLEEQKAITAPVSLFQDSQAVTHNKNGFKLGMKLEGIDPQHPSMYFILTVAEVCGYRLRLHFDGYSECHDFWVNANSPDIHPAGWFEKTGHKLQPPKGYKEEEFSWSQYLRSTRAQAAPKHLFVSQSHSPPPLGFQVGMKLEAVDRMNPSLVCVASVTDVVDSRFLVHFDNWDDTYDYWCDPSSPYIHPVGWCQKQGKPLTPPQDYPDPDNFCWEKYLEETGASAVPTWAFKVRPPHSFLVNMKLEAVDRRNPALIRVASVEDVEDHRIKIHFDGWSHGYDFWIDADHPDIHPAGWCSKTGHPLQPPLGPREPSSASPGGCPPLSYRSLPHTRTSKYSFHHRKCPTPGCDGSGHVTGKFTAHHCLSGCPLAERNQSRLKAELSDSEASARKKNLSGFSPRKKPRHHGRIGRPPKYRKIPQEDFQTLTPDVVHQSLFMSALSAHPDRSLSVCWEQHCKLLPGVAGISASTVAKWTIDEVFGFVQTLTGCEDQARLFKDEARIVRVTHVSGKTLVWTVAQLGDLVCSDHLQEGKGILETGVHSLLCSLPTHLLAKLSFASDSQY
Chain of Myosin light chain kinase 2, skeletal/cardiac muscle (Homo sapiens) (Q9H1R3 whole entry): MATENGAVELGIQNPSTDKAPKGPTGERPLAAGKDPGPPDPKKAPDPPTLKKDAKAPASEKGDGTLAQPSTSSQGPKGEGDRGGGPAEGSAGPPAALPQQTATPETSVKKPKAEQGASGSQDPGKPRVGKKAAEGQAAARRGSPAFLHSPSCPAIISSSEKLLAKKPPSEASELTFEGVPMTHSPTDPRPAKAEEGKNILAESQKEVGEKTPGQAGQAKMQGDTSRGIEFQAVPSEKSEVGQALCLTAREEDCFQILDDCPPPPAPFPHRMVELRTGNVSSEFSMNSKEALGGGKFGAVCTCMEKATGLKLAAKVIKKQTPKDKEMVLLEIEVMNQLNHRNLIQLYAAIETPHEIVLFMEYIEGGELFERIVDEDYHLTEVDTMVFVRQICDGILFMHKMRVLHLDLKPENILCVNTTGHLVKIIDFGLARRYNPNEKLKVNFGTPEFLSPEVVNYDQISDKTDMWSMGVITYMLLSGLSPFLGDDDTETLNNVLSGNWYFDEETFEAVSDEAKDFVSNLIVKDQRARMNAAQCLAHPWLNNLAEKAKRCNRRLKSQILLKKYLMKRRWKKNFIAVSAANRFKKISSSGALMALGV

As to `Cn1cc(-n2cnc3c(NCc4nc5cc(Cl)c(Cl)cc5[nH]4)nc(N4CCOCC4)nc32)cn1`, the % of control in assay [1] amounted to 11.7%.

`CN(C)C/C=C/C(=O)Nc1ccc(C(=O)N2CCCC(Nc3ncc(Cl)c(-c4c[nH]c5ccccc45)n3)C2)cc1` (stereo not drawn) showed a % of control in [2] of 100%.

As to `CNC(=O)Nc1ccc(-c2nc(N3CC4CCC(C3)O4)c3cnn(C4CCC5(CC4)OCCO5)c3n2)cc1`, the % of control in assay [3] is 100%.

In the case of `Cc1cc([C@@H](C)Nc2ccccc2C(=O)O)c2nc(N3CCOCC3)cc(=O)n2c1` [AZD-6482], the % of control in [4] came to 97%.

Take `COc1cc(N(C)c2ccnc3ccc(C(F)(F)F)cc23)cc(OC)c1OC`: the % binding in assay [5] came to 75%.

As for `COCCN1CCC(c2cc(CN(C)C(=O)c3cccc(Oc4ccccc4)c3)ccn2)CC1`, the values for the % activity in assay [6] (at 1 µM) and in assay [6] (at 10 µM) were over 95% and over 90%, respectively.

Consider `N#Cc1cccc(-c2c[nH]c3ncnc(N4CCOCC4)c23)c1`, for which the % of control in assay [7] stood at 100%. The % of inhibition in assay [8] was -32%; in assay [9], 74%.

In the case of `CCC(=O)N1CC[C@H](Nc2ncnc3c2CN(c2cnc(OC)c(C(F)(F)F)c2)CC3)C1` [LENIOLISIB], in [10], the IC50 – broadly, the concentration that gives 50% inhibition – was over 30 µM.

Consider `CC[C@@H]1[C@H](F)C(=O)N[C@@H]1COc1nccc2cc(C(N)=O)c(OC)cc12` [ZIMLOVISERTIB], for which the % of inhibition in assay [11] is 4.41%; in assay [12], -1.4%.

With `C=CC(=O)Nc1cccc(C(=O)Nc2ccc(Nc3cc(-c4[nH]c(SC)nc4C)ccn3)cc2)c1`, the values for the % of control in assay [13] (at 1 µM) and in [13] (at 5 µM) were 176% and 156%, respectively.

Compound `Cc1cc(CN)cc(C)c1-c1ncn(C)c1-c1cncn1C` displayed a % activity in [14] of over 90%.

In the case of `Cc1cc(C)cc([C@H]2c3cc(C)ccc3NC(=O)CN2C(=O)c2ccc(Br)s2)c1`, the % of activity in [15] (at 1 µM) and in assay [15] (at 10 µM) was 103% throughout.
